# Paper PMC9516332 (Frontiers in Oncology, 2022)
# Where two headings read alike, the source gives them in different places.
# Assays:
# Test in all cases: Kinase panel profiling at 1 µmol/L (MSA or IMAP), percentage inhibition
# Type in all cases: biochemical
# [1] = molecular target: panel of 255 wild-type kinases (Homo sapiens, UniProt P08069); details: read-out: %-inhibition at 1 µmol/L, IGF1R
# [2] = molecular target: panel of 255 wild-type kinases (Homo sapiens, UniProt P16234); details: read-out: %-inhibition at 1 µmol/L, PDGFRα
# [3] = molecular target: panel of 255 wild-type kinases (Homo sapiens, UniProt P49761); details: read-out: %-inhibition at 1 µmol/L, CLK3
# [4] = molecular target: T1, panel of 255 wild-type kinases (Homo sapiens, UniProt Q08881); details: read-out: %-inhibition at 1 µmol/L, ITK
# T1 sequence (Q08881 1-620): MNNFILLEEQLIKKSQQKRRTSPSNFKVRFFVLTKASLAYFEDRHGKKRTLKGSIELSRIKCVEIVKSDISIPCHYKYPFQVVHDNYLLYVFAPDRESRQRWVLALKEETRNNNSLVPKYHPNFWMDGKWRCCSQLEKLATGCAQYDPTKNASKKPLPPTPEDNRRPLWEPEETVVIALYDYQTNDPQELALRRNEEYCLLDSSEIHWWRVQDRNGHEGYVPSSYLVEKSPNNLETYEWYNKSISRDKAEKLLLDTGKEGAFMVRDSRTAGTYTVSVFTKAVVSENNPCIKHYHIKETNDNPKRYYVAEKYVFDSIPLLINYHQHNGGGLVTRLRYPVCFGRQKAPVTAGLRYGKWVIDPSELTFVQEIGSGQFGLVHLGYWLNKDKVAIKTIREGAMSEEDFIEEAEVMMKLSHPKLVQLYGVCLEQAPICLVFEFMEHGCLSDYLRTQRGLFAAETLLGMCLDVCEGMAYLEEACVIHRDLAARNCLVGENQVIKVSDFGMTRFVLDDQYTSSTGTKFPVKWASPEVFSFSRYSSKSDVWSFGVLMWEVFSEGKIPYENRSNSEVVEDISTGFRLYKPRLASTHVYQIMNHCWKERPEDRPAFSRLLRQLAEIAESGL
# [5] = molecular target: T2, panel of 255 wild-type kinases (Homo sapiens, UniProt Q13043); details: read-out: %-inhibition, MST1
# T2 sequence (Q13043 1-487): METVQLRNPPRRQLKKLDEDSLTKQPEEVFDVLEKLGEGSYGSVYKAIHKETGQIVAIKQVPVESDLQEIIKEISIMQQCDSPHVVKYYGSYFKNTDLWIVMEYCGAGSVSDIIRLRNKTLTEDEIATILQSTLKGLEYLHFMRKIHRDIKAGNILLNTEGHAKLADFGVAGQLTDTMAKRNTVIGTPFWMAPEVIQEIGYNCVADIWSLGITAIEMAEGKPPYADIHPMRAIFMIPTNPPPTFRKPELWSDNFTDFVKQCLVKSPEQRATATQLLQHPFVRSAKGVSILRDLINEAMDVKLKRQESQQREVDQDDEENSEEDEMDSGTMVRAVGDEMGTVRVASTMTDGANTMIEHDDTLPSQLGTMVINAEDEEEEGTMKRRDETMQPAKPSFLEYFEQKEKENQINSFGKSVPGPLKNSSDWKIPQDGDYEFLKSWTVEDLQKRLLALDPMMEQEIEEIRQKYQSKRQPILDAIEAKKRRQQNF
# [6] = molecular target: T3, panel of 255 wild-type kinases (Homo sapiens, UniProt Q13976); details: read-out: %-inhibition at 1 µmol/L, PGK
# T3 sequence (Q13976 1-671): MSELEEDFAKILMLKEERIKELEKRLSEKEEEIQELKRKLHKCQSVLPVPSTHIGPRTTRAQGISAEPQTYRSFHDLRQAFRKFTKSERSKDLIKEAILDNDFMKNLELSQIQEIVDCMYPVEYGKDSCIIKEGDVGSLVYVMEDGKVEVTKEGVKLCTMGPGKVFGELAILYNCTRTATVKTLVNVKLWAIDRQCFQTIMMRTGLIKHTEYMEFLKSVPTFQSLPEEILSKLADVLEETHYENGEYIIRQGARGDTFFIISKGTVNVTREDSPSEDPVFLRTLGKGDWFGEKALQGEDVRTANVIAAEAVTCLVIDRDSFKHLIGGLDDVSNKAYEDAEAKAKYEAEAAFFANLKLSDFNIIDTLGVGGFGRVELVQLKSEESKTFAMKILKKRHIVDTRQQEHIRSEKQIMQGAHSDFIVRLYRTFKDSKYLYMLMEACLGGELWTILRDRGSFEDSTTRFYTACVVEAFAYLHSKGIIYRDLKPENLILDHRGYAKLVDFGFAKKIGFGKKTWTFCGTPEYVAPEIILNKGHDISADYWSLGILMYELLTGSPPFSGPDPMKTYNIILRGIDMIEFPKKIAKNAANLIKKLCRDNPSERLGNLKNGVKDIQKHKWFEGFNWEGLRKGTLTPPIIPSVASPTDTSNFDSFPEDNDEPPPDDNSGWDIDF
# [7] = molecular target: panel of 255 wild-type kinases (Homo sapiens, UniProt Q9H0K1); details: read-out: %-inhibition at 1 µmol/L, QIK
# [8] = kinase IGF1R, 1 µmol/L single concentration
# [9] = kinase PDGFRα, 1 µmol/L single concentration
# [10] = kinase CLK3, 1 µmol/L single concentration
# [11] = kinase ITK, 1 µmol/L single concentration
# [12] = MST1, 1 µmol/L single concentration
# [13] = kinase PGK, 1 µmol/L single concentration
# [14] = kinase QIK, 1 µmol/L single concentration
SMILES,"inhibition at 1 µM [1, 8]","inhibition at 1 µM [2, 9]","inhibition at 1 µM [3, 10]","inhibition at 1 µM [4, 11]","inhibition at 1 µM [5, 12]","inhibition at 1 µM [6, 13]","inhibition at 1 µM [7, 14]",inhibition at 1 µM [1],inhibition at 1 µM [2],inhibition at 1 µM [3],inhibition at 1 µM [4],inhibition at 1 µM [5],inhibition at 1 µM [6],inhibition at 1 µM [7]
Cn1cnc2c(F)c(Nc3ccc(Br)cc3Cl)c(C(=O)NOCCO)cc21 [selumetinib],5.57%,25%,7.48%,4.28%,-2.38%,-2%,-4%,–,–,–,–,–,–,–
COc1ccc(CN2C3CC2CN(c2ccc(-c4cc(OCC(C)(C)O)cn5ncc(C#N)c45)cn2)C3)cn1 [selpercatinib],3%,96%,0.425%,79%,-2.33%,0.302%,-2.53%,–,–,–,–,–,–,–
O=C(Nc1cnn2ccc(N3CCC[C@@H]3c3cc(F)ccc3F)nc12)N1CC[C@H](O)C1 [larotrectinib],3.6%,2.45%,-3.43%,13%,-4%,-2.33%,-6.33%,–,–,–,–,–,–,–
CCN1C(=O)N(c2c(F)c(OC)cc(OC)c2F)Cc2cnc3[nH]c(CN4CCOCC4)cc3c21 [pemigatinib],7%,69%,-1%,2%,6%,-1.82%,6.5%,–,–,–,–,–,–,–
CNC(=O)c1ccc(-c2cnc3ncc(Cc4ccc5ncccc5c4)n3n2)cc1F [capmatinib],–,–,–,–,–,–,–,5.7%,18%,8%,5%,-2%,-4.5%,-2.24%
FC(F)(F)c1ccc(CNc2ccc(Cc3c[nH]c4ncc(Cl)cc34)cn2)cn1 [pexidartinib],17%,83%,18%,9%,25%,14%,11%,–,–,–,–,–,–,–
C[C@H](Nc1ncnc2nc[nH]c12)c1cc2cccc(Cl)c2c(=O)n1-c1ccccc1 [duvelisib],1.51%,2%,1.78%,9%,10%,1.63%,2.15%,–,–,–,–,–,–,–
CO[C@]1(C(=O)N[C@@H](C)c2ccc(-n3cc(F)cn3)nc2)CC[C@H](c2nc(C)cc(Nc3cc(C)[nH]n3)n2)CC1 [pralsetinib],10%,99%,9%,59%,19%,13%,-2.55%,–,–,–,–,–,–,–
Cc1cc(Nc2ncnc3ccc(NC4=NC(C)(C)CO4)cc23)ccc1Oc1ccn2ncnc2c1 [tucatinib],2.31%,30%,5.42%,1.31%,4%,0.26%,-2.58%,–,–,–,–,–,–,–
Cn1cnc2c(F)c(Nc3ccc(Br)cc3F)c(C(=O)NOCCO)cc21 [binimetinib],4.47%,2%,0.514%,1.61%,-6.46%,-3%,-4%,–,–,–,–,–,–,–
Cc1nc(NC(=O)N2CCC[C@H]2C(N)=O)sc1-c1ccnc(C(C)(C)C(F)(F)F)c1 [alpelisib],-0.261%,0.405%,22%,9%,5%,-3%,2.48%,–,–,–,–,–,–,–
C=CC(=O)N1CCC([C@@H]2CCNc3c(C(N)=O)c(-c4ccc(Oc5ccccc5)cc4)nn32)CC1 [zanubrutinib],3%,11%,-3.73%,34%,-3%,-2.64%,-4%,–,–,–,–,–,–,–
C[C@H]1Oc2cc(cnc2N)-c2c(nn(C)c2C#N)CN(C)C(=O)c2ccc(F)cc21 [lorlatinib],79%,1.74%,0.641%,14%,28%,0.684%,2.53%,–,–,–,–,–,–,–
CCN1CCN(c2ccc(Nc3cc(N(C)C(=O)Nc4c(Cl)c(OC)cc(OC)c4Cl)ncn3)cc2)CC1 [infigratinib],18%,59%,12%,6%,1.11%,-2%,26%,–,–,–,–,–,–,–
COC(=O)N[C@@H](C)CNc1nccc(-c2cn(C(C)C)nc2-c2cc(Cl)cc(NS(C)(=O)=O)c2F)n1 [encorafenib],6.61%,4%,4.44%,3.49%,0.835%,-1.28%,-0.749%,–,–,–,–,–,–,–
CCc1nc(C(N)=O)c(Nc2ccc(N3CCC(N4CCN(C)CC4)CC3)c(OC)c2)nc1NC1CCOCC1 [gilteritinib],99%,95%,7%,92%,92%,41%,63%,–,–,–,–,–,–,–
CN1CCN(c2ccc(C(=O)Nc3n[nH]c4ccc(Cc5cc(F)cc(F)c5)cc34)c(NC3CCOCC3)c2)CC1 [entrectinib],98%,29%,3.46%,99%,92%,–,6.5%,–,–,–,–,–,–,–
Cn1cc(-c2cc3c(N4CCN(c5ncc([C@@](C)(N)c6ccc(F)cc6)cn5)CC4)ncnn3c2)cn1 [avapritinib],3.41%,–,3.76%,19%,5.32%,-2.58%,44%,–,–,–,–,–,–,–
CCn1c(=O)c(-c2cc(NC(=O)Nc3ccccc3)c(F)cc2Br)cc2cnc(NC)cc21 [ripretinib],3.34%,–,-7%,1.24%,3%,-0.449%,7%,–,–,–,–,–,–,–
